Data as given in patent US10550108B2, “Poly(ADP-ribose) polymerase 1 inhibitors structurally unrelated to NAD” (Institute for Cancer Research, priority 2014, dated 2020).
Entries after “also recorded” stand apart in the source; their conditions may differ.

The molecules below were run on normal breast-derived cells HMEK (assay: Cell survival assay (alamarBlue), normal cells). Details: 72 hr.
Format: cell-based, human
Experimental: (§1) Normal cells and cancer-derived cells were plated at a density of 10^4 cells/well (100 μl) in a 96-well plate. On the next day, Olaparib, a NAD-mimetic, or 5F02, 4D11, 5A03, 5H03, 1C09, new non-NAD-like inhibitors, were added. Cells were grown for 72 hr. 20 μl/well of alamarBlue® reagent was added; fluorescence readings were taken.
(§2) The cytotoxic effects of treatment by classical inhibitor Olaparib and the new inhibitors was compared using breast cancer-derived cells BT474 and normal breast-derived cells HMEK.

SMILES | cytotoxicity to normal cells
O=C(c1cc(Cc2n[nH]c(=O)c3ccccc23)ccc1F)N1CCN(C(=O)C2CC2)CC1 [Olaparib] | killed both normal and cancer cells

The molecules below were run on breast cancer-derived cells BT474 (assay: Cell survival assay (alamarBlue), cancer-derived cells). Details: 72 hr.
Format: cell-based, human
Experimental: as §1, §2

SMILES | cytotoxic effect on cancer-derived cells
O=C(c1cc(Cc2n[nH]c(=O)c3ccccc23)ccc1F)N1CCN(C(=O)C2CC2)CC1 [Olaparib] | eliminate cancer-derived cells at similar concentrations; also recorded: killed both normal and cancer cells

Each molecule was assayed against PARP-1 (Homo sapiens, UniProt P09874) (assay: PARP-1 activation screening assay, 384-well ELISA plate coated with histone H4). Details: pilot screen of ICCB Known Bioactives library; pADPr ELISA signal (absorbance at 650 or 450 nm as indicator of PARP-1 activity).
PARP-1, sequence (P09874 whole entry): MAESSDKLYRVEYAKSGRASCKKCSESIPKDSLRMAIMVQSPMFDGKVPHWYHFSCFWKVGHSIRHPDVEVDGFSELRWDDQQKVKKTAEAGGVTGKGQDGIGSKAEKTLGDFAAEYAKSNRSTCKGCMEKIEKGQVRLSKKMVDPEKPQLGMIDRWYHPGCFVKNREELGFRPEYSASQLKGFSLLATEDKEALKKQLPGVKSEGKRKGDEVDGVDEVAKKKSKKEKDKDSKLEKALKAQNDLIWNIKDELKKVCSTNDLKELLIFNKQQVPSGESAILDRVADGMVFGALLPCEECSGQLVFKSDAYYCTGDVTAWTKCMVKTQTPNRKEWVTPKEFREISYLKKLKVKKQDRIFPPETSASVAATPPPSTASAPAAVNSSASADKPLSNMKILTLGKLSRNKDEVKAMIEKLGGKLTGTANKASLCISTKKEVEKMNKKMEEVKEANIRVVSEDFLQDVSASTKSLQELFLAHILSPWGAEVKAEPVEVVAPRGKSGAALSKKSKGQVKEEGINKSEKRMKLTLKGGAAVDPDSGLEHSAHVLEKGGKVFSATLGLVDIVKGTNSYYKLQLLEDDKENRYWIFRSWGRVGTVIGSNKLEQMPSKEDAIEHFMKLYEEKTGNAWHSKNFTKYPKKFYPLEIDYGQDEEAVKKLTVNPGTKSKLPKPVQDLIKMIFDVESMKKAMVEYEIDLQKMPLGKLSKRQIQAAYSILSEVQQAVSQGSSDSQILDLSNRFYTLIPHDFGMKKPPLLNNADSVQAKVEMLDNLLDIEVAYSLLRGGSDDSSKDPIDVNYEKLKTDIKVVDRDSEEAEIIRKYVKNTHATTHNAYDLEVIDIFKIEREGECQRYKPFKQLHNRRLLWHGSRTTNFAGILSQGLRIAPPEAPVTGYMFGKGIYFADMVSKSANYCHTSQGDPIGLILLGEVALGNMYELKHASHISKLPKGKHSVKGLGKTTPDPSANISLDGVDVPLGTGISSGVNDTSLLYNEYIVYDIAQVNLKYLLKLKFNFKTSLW
Text: The screening platform included a PARP1 activation assay in plates coated with histone H4. PARP1 reactions were set up in each well of the plate in the presence of a single small molecule test compound or a positive or negative control compound. The product of the reaction between PARP1 and H4, poly-ADP-ribose, was then quantified, with absorbance at 650 nm or 450 nm used as an indicator of PARP1 activity (FIG. 2A).
A PARP-1 activation screening assay was designed using a 384-well ELISA plate coated with histone H4 protein-activator. PARP-1 reactions were set up in each well in presence of single a small molecule compound or a positive and a negative control. […] The product of these reactions, poly-(ADP)-ribose, was quantified. Absorbance at 650 or 450 nm was used as an indicator of PARP-1 activity (FIG. 2A). As the test library for this screening assay, the ICCB Known Bioactives library of 480 compounds was used, which includes all popular PARP-1 inhibitors.

SMILES | Value
CN(C)C[C@H](O)Cn1c2ccc(Br)cc2c2cc(Br)ccc21 (racemic) [Wiskostatin] | 1.90
O=c1[nH]c2ccccc2c2ccccc12 [6(5H)-Phenanthridinone] | 0.05
Br.NC1CCc2cc(O)c(O)cc2C1 (stereo not drawn) [6,7-ADTN HBr] | 0.50
N#C/C(=C\c1ccc(O)c(O)c1)C(N)=S [AG213 (Tyrphostin 47)] | 1.28
CCOC(=O)CN1C(=O)CC(C[C@@H](O)[C@@H]2C[C@@H](C)C[C@H](C)C2=O)CC1=O [Cycloheximide-N-ethylethanoate] | 1.89
C=C1[C@@H](C)[C@H]2[C@H](Cc3ccccc3)NC(=O)[C@]23OC(=O)/C=C/[C@H](O)CCC[C@@H](C)C/C=C/[C@H]3[C@@H]1O [Cytochalasin B] | 2.03
C=C1O[C@@](CO)(n2cnc3c(N)ncnc32)[C@H](O)[C@@H]1O [Decoyinine] | 2.00
[Cl-].c1ccc2c(c1)[I+]c1ccccc1-2 [Diphenyleneiodonium Cl] | 0.20
CNc1ccc2oc(C[C@H]3O[C@@]4(CC[C@H]3C)O[C@H]([C@H](C)C(=O)c3ccc[nH]3)[C@H](C)C[C@H]4C)nc2c1C(=O)O [Formula A-23187, A-23187] | 1.22
NCCNS(=O)(=O)c1cccc2cnccc12 [Formula H9] | 0.05
CC(C)Cn1c(=O)n(C)c(=O)c2[nH]cnc21 [IBMX] | 0.94
CN(C)C(=O)C(CCN1CCC(O)(c2ccc(Cl)cc2)CC1)(c1ccccc1)c1ccccc1 [Loperamide] | 2.34
CC1(C)Oc2ccc(C#N)cc2[C@@H](OC2=CC(=O)CC2)[C@@H]1O [PCO-400] | 2.01
COc1cccc(-c2cc(=O)c3ccccc3o2)c1N [PD 98059] | 0.69
CC[N+](C)(CC)CCC[n+]1c(-c2ccccc2)c2cc(N)ccc2c2ccc(N)cc21.[I-].[I-] [Propidium iodide] | 0.18
O=c1c(O)c(-c2ccc(O)c(O)c2)oc2cc(O)cc(O)c12 [Quercetin] | 0.18
